Converted amounts (≈) assume the structure as drawn. Read-outs that look alike come from different tables or passages of the source.
How the values were obtained:
[1] = tested on: C. parapsilosis ATCC 22019; experiment: Anti-Fungal Activity Assay (broth microtiter MIC), C. parapsilosis; format: cell-based, Candida parapsilosis; details: Lodderomyces parapsilosis, ATCC22019, 48 h, 3 replicates; MIC recorded at 48 h; read-out: MIC C. parapsilosis ATCC 22019
In short: (§1)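 Plate from frozen stock onto Sabouraud dextrose agar, 35° C overnight; swab colonies into RPMI 1640+MOPS; set density via standard curves; run CLSI M27-A3 broth microdilution; score MIC visually versus growth control at 48 h, soraphen additionally at 24 h.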

[2] = tested on: C. krusei ATCC 6258; experiment: Anti-Fungal Activity Assay (broth microtiter MIC), C. krusei; format: cell-based, Candida krusei; details: Pichia kudriavzevii, ATCC6258, 48 h, 3 replicates; MIC recorded at 48 h; read-out: MIC C. krusei ATCC 6258
In short: as §1

[3] = tested on: Candida glabrata; experiment: In vitro antifungal assay (broth microdilution, Micromyx), C. glabrata; format: cell-based; details: Nakaseomyces glabratus, ATCC90030, strain 0635 ATCC 90030, 35° C., approximately 24-48 hr
Experimental: (§2) Compounds of the present invention were also assayed in an in vitro antifungal assay against Candida glabrata, Candida tropicalis, and Aspergillus fumigatus, performed by Micromyx, a representative procedure of which follows. The test organisms were reference strains acquired from the American Type Culture Collection (ATCC). Upon receipt, the isolates were streaked onto Sabouraud Dextrose Agar (SDA). Colonies were harvested from these plates and a cell suspension was prepared in Sabouraud Dextrose Broth (Becton Dickinson, Sparks, Md.) containing cryoprotectant. Aliquots were then frozen at −80° C. Prior to the assay, the frozen seeds of all yeast isolates to be tested in that session were thawed and streaked for isolation onto SDA and incubated overnight at 35° C. All fungal isolates were previously streaked on SDA and incubated at 35° C. until spore formation occurred, followed by harvesting of the spores in sterile 0.85% saline and enumeration. The spore preps were stored at 4° C. Yeast and fungal isolates were tested in RPMI medium (Catalog No. SH30011.04; Lot No. AYB60287A; HyClone Labs, Logan, Utah) buffered with 0.165 M MOPS (Catalog No. 475898; Lot No. D00165859; CalBiochem, La Jolla, Calif.). The pH of the medium was adjusted to 7.0 with 1 N NaOH, sterile filtered using a 0.2 μm PES filter, and stored at 4° C. until used. All of the above media was prepared and stored according to guidelines from the Clinical and Laboratory Standards Institute (CLSI; 2-4). The broth microdilution assay method essentially followed the procedure described by CLSI (2-4) and employed automated liquid handlers to conduct serial dilutions and liquid transfers. Automated liquid handlers included the Multidrop 384 (Labsystems, Helsinki, Finland) and Biomek 2000 (Beckman Coulter, Fullerton Calif. The wells in columns 2-12 in standard 96-well microdilution plates (Costar 3795) were filled with 150 μl of the correct diluent. These would become the ‘mother plates’ from which ‘daughter’ or test plates would be prepared. The drugs (300 μL at 40× the desired top concentration in the test plates) were dispensed into the appropriate well in Column 1 of the mother plates. The Biomek 2000 was used to make serial two-fold dilutions through Column 11 in the “mother plate”. The wells of Column 12 contained no drug and were the organism growth control wells. The daughter plates were loaded with 185 μL per well of the appropriate test media using the Multidrop 384. The daughter plates were prepared using the Biomek FX which transferred 5 μL of drug solution from each well of a mother plate to the corresponding well of the correct daughter plate in a single step. A standardized inoculum of each organism was prepared per CLSI methods (2-4). For yeast isolates, colonies were picked from the primary plate and a suspension was prepared to equal a 0.5 McFarland turbidity standard. Suspensions were then diluted 1:100 in RPMI 1640 medium, resulting in a final inoculum concentration of 0.5-2.5×10^3 CFU/mL per test well. […] Standardized inoculum suspensions were transferred to compartments of sterile reservoirs divided by length (Beckman Coulter), and the Biomek 2000 was used to inoculate all plates. Daughter plates were placed on the Biomek 2000 in reverse orientation so that plates were inoculated from low to high drug concentration. The Biomek 2000 delivered 10 μL of standardized inoculum into each well of the appropriate daughter plate for an additional 1:20 dilution. Thus, the wells of the daughter plates ultimately contained 185 μL of the appropriate media, 5 μL of drug solution, and 10 μL of inoculum. The final concentration of DMSO (if used as a solvent) in the test well was 2.5%. Plates were stacked 3 high, covered with a lid on the top plate, placed into plastic bags, and incubated at 35° C. for approximately 24-48 hr for all yeast isolates, and 48 hr for all fungal isolates. Plates were viewed from the bottom using a plate viewer. […]

[4] = target: Human ACC2 (Homo sapiens, UniProt O00763); experiment: In vitro ACC2 inhibition assay (ADP-Glo), human ACC2; format: biochemical; details: 5 nM ACC2, 20 μM ATP, 20 μM acetyl-CoA
[5] = tested on: Aspergillus fumigatus; experiment: In vitro antifungal assay (broth microdilution, Micromyx), A. fumigatus; format: cell-based; details: 48 hr
Experimental: as §2

[6] = tested on: Candida tropicalis; experiment: In vitro antifungal assay (broth microdilution, Micromyx), C. tropicalis; format: cell-based; details: ATCC90874, strain 0636 ATCC 90874, 35° C., approximately 24-48 hr
Experimental: as §2

[7] = tested on: C. albicans ATCC 90028; experiment: Anti-Fungal Activity Assay (broth microtiter MIC), C. albicans; format: cell-based, Candida albicans; details: Candida albicans, ATCC90028, 48 h, 3 replicates; MIC recorded at 48 h; read-out: MIC C. albicans ATCC 90028
In short: as §1

[8] = target: Fungal ACC2 (UniProt Q00955); details: read-out: Fungal ACC2 (IC50, in vitro ACC2 inhibition)
[9] = tested on: ACC2; details: ACC2 isolated from rat, mouse, monkey and human; cited from earlier work
[10] = tested on: ACC1; details: ACC1 isolated from rat, mouse, monkey and human; cited from earlier work
[11] = strain 5280 ATCC MYA-3626, 35° C., read-out: MIC, A. fumigatus 5280 ATCC MYA-3626
[12] = strain 6781 ATCC MYA-4609, 35° C., read-out: MIC, A. fumigatus 6781 ATCC MYA-4609

Human ACC2, sequence (O00763 whole entry): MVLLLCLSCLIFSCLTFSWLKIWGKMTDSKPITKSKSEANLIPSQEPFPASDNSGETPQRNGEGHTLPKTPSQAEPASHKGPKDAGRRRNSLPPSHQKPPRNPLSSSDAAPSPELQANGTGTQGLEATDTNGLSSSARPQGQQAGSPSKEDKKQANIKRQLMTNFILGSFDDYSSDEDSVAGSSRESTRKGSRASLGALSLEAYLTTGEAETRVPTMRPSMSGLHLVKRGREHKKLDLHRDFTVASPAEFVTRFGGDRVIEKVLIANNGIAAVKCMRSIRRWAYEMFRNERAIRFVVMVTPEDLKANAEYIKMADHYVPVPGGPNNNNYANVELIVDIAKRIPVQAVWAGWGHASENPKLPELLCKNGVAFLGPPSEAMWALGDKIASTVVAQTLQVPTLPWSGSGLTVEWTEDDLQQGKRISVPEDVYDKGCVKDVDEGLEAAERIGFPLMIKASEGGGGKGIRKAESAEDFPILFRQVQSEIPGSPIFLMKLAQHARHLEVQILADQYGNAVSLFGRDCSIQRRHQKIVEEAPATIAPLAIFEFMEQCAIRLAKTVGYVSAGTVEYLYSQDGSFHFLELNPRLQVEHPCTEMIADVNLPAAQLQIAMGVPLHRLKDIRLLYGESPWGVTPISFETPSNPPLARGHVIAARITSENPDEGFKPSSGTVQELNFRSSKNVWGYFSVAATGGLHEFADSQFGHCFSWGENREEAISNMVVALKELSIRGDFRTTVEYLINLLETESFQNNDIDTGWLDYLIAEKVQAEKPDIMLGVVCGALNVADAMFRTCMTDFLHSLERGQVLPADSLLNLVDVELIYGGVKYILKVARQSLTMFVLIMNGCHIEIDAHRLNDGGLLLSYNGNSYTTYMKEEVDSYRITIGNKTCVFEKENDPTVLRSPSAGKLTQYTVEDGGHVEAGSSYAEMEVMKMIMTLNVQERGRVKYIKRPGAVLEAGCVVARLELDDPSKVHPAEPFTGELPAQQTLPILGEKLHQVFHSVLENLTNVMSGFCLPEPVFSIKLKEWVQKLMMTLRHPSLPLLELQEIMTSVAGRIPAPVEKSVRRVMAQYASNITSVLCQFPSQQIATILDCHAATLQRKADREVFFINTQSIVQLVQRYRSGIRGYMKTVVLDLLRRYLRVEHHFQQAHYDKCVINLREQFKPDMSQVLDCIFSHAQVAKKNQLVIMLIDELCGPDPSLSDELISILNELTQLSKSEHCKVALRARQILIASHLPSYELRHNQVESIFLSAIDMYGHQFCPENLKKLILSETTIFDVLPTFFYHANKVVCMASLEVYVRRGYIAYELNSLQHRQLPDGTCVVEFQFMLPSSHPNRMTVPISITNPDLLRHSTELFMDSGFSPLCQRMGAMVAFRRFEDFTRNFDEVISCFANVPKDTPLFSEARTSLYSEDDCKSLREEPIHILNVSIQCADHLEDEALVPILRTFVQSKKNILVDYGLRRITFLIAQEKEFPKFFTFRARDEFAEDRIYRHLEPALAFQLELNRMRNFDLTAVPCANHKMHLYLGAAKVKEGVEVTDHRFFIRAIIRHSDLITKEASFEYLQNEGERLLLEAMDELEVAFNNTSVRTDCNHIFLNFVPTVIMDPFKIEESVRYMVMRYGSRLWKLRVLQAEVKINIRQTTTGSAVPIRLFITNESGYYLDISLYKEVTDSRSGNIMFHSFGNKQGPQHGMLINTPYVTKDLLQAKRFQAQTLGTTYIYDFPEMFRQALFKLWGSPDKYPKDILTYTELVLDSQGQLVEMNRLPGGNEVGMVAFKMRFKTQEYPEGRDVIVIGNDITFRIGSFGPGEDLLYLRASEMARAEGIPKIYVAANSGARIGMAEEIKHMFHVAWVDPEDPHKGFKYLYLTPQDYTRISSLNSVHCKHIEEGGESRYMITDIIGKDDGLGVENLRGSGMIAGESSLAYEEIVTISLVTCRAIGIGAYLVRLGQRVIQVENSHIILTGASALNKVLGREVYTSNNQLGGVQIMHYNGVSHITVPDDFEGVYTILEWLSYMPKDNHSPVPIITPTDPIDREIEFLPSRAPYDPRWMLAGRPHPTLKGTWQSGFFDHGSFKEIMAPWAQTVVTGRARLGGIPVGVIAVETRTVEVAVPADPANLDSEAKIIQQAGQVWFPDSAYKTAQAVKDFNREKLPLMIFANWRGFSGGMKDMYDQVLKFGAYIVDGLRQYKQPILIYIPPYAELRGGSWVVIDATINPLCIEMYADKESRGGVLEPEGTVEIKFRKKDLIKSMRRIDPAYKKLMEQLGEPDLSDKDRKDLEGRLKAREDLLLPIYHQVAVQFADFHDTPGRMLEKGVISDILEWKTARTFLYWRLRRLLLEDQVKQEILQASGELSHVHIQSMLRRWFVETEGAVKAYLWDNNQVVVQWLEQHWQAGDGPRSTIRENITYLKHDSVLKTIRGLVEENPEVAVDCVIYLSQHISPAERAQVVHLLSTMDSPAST
Fungal ACC2, sequence (Q00955 whole entry): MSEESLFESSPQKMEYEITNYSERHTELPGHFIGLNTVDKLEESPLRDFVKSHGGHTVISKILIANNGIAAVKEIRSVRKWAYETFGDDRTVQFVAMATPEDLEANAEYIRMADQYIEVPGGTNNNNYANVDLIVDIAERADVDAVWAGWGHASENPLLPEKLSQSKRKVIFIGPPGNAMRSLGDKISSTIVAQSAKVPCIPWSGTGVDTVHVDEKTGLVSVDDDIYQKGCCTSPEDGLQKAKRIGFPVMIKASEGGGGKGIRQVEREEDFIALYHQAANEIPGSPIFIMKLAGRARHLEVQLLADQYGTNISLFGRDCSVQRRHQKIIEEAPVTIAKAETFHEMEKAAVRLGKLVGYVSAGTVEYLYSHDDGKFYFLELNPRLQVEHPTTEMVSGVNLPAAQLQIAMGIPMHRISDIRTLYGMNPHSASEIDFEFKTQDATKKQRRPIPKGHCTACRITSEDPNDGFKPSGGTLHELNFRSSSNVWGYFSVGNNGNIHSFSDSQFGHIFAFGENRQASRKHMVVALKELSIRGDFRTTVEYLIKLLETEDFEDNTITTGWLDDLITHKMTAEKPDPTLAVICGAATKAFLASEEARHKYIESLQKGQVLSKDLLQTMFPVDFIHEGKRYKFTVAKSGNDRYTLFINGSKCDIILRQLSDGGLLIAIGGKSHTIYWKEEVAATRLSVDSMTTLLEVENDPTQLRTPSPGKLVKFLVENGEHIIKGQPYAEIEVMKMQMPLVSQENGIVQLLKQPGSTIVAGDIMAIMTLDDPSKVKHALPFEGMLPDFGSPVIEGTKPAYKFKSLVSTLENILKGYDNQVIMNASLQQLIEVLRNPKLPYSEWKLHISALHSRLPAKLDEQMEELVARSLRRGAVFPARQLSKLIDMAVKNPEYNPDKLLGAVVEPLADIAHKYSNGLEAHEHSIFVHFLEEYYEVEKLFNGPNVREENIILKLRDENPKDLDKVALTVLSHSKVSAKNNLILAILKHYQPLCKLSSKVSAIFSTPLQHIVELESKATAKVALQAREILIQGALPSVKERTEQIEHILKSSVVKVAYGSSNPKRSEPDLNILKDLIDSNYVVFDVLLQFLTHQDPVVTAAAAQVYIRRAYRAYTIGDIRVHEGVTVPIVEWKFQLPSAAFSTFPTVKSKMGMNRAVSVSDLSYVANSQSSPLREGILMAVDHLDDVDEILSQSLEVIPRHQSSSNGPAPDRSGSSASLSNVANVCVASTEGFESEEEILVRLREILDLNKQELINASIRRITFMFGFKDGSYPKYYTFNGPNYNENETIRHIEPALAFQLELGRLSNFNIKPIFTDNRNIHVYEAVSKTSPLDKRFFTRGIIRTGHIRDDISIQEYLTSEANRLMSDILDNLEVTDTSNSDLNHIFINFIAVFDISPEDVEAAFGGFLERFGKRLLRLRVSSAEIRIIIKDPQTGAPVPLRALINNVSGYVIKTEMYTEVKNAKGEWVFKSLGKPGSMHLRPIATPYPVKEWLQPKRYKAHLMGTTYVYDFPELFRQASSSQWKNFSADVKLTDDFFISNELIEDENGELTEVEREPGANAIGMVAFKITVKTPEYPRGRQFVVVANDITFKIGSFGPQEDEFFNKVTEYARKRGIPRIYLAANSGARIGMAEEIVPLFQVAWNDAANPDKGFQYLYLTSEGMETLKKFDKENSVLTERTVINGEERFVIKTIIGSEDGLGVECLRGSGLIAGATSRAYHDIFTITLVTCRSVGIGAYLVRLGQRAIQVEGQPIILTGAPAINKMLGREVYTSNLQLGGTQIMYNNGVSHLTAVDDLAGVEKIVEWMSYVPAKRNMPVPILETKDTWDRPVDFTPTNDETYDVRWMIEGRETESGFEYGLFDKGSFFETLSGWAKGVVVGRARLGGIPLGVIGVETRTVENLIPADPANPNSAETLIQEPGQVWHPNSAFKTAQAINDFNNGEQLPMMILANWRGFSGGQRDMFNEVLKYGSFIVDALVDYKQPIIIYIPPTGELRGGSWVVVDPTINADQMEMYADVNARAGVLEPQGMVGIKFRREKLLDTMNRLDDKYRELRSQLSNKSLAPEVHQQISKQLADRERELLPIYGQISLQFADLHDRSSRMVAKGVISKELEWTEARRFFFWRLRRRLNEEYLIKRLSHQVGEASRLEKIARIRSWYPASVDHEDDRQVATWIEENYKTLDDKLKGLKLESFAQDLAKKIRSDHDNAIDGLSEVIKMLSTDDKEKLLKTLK

Row | SMILES | MIC [1] | MIC [2] | MIC [3] | IC50 [4] | MIC [5, 11] | MIC [5, 12] | MIC [6] | MIC [7] | IC50 [8] | IC50 [9] | IC50 [10]
1 | COc1ccc(F)cc1[C@H](Cn1c(=O)n([C@@H]2CCNC2=O)c(=O)c2c(C)c(-n3nccn3)sc21)OC1CCOCC1 [Compound I-34, 1-((R)-2-(5-fluoro-2-methoxyphenyl)-2-((tetrahydro-2H-pyran-4-yl)oxy)ethyl)-5-methyl-3-((R)-2-oxopyrrolidin-3-yl)-6-(2H-1,2,3-triazol-2-yl)thieno[2,3-d]pyrimidine-2,4(1H,3H)-dione] | 0.25 to 1 mg/L (≈ 0.428 to 1.71 µM) | 0.25 to 1 mg/L (≈ 0.428 to 1.71 µM) | > 4.1 mg/L | 0.002 to 0.01 µM | 1.1 to 2 mg/L (≈ 1.88 to 3.42 µM) | 1.1 to 2 mg/L (≈ 1.88 to 3.42 µM) | 0.25 to 1 mg/L (≈ 0.428 to 1.71 µM) | 0.25 to 1 mg/L (≈ 0.428 to 1.71 µM) | – | – | –
2 | COc1ccc(F)cc1[C@H](Cn1c(=O)n([C@@H]2CCN(C)C2=O)c(=O)c2c(C)c(-n3nccn3)sc21)OC1CCOCC1 [Compound I-36, 1-((R)-2-(5-fluoro-2-methoxyphenyl)-2-((tetrahydro-2H-pyran-4-yl)oxy)ethyl)-5-methyl-3-((R)-1-methyl-2-oxopyrrolidin-3-yl)-6-(2H-1,2,3-triazol-2-yl)thieno[2,3-d]pyrimidine-2,4(1H,3H)-dione] | 0.25 to 1 mg/L (≈ 0.418 to 1.67 µM) | 0.25 to 1 mg/L (≈ 0.418 to 1.67 µM) | > 4.1 mg/L | 0.002 to 0.01 µM | 0.25 to 1 mg/L (≈ 0.418 to 1.67 µM) | 0.25 to 1 mg/L (≈ 0.418 to 1.67 µM) | 0.25 to 1 mg/L (≈ 0.418 to 1.67 µM) | 0.25 to 1 mg/L (≈ 0.418 to 1.67 µM) | 0.002 to 0.01 µM | – | –
3 | COc1ccc(F)cc1[C@H](Cn1c(=O)n([C@H]2CCCNC2=O)c(=O)c2c(C)c(-n3nccn3)sc21)OC1CCOCC1 [Compound I-37, 1-((R)-2-(5-fluoro-2-methoxyphenyl)-2-((tetrahydro-2H-pyran-4-yl)oxy)ethyl)-5-methyl-3-((S)-2-oxopiperidin-3-yl)-6-(2H-1,2,3-triazol-2-yl)thieno[2,3-d]pyrimidine-2,4(1H,3H)-dione] | 0.25 to 1 mg/L (≈ 0.418 to 1.67 µM) | 0.25 to 1 mg/L (≈ 0.418 to 1.67 µM) | > 4.1 mg/L | 0.002 to 0.01 µM | 1.1 to 2 mg/L (≈ 1.84 to 3.34 µM) | 1.1 to 2 mg/L (≈ 1.84 to 3.34 µM) | 0.25 to 1 mg/L (≈ 0.418 to 1.67 µM) | 0.25 to 1 mg/L (≈ 0.418 to 1.67 µM) | – | – | –
4 | CCN1CCC(n2c(=O)c3c(C)c(-n4nccn4)sc3n(C[C@H](OC3CCOCC3)c3cc(F)ccc3OC)c2=O)C1=O (stereo partly drawn) [Compound I-11, 3-(1-ethyl-2-oxopyrrolidin-3-yl)-1-((R)-2-(5-fluoro-2-methoxyphenyl)-2-((tetrahydro-2H-pyran-4-yl)oxy)ethyl)-5-methyl-6-(2H-1,2,3-triazol-2-yl)thieno[2,3-d]pyrimidine-2,4(1H,3H)-dione] | – | – | > 4.1 mg/L | 0.002 to 0.01 µM | 0.25 to 1 mg/L (≈ 0.408 to 1.63 µM) | 0.25 to 1 mg/L (≈ 0.408 to 1.63 µM) | 0.25 to 1 mg/L (≈ 0.408 to 1.63 µM) | – | – | – | –
5 | O=C(c1c2ccccc2cc2ccccc12)N1CCC(N2CCC[C@@H](C(=O)N3CCOCC3)C2)CC1 [CP-640186] | – | – | – | – | – | – | – | – | – | ~0.06 µM | ~0.06 µM
6 | COc1ccc(F)cc1[C@H](Cn1c(=O)n([C@H]2CCCN(C)C2=O)c(=O)c2c(C)c(-n3nccn3)sc21)OC1CCOCC1 [Compound I-39, 1-((R)-2-(5-fluoro-2-methoxyphenyl)-2-((tetrahydro-2H-pyran-4-yl)oxy)ethyl)-5-methyl-3-((S)-1-methyl-2-oxopiperidin-3-yl)-6-(2H-1,2,3-triazol-2-yl)thieno[2,3-d]pyrimidine-2,4(1H,3H)-dione] | 0.25 to 1 mg/L (≈ 0.408 to 1.63 µM) | 0.25 to 1 mg/L (≈ 0.408 to 1.63 µM) | > 4.1 mg/L | 0.002 to 0.01 µM | 1.1 to 2 mg/L (≈ 1.8 to 3.26 µM) | 1.1 to 2 mg/L (≈ 1.8 to 3.26 µM) | 0.25 to 1 mg/L (≈ 0.408 to 1.63 µM) | 0.25 to 1 mg/L (≈ 0.408 to 1.63 µM) | 0.0007 to 0.002 µM | – | –
7 | COc1ccc(F)cc1[C@H](Cn1c(=O)n(C2CCN(C(C)C)C2=O)c(=O)c2c(C)c(-n3nccn3)sc21)OC1CCOCC1 (stereo partly drawn) [Compound I-12, 1-((R)-2-(5-fluoro-2-methoxyphenyl)-2-((tetrahydro-2H-pyran-4-yl)oxy)ethyl)-3-(1-isopropyl-2-oxopyrrolidin-3-yl)-5-methyl-6-(2H-1,2,3-triazol-2-yl)thieno[2,3-d]pyrimidine-2,4(1H,3H)-dione] | 0.25 to 1 mg/L (≈ 0.399 to 1.6 µM) | 0.25 to 1 mg/L (≈ 0.399 to 1.6 µM) | > 4.1 mg/L | 0.002 to 0.01 µM | 0.25 to 1 mg/L (≈ 0.399 to 1.6 µM) | 0.25 to 1 mg/L (≈ 0.399 to 1.6 µM) | 0.25 to 1 mg/L (≈ 0.399 to 1.6 µM) | 0.25 to 1 mg/L (≈ 0.399 to 1.6 µM) | – | – | –
